Assay [1] addresses T1, TbINO1 (Trypanosoma brucei brucei, UniProt Q5QQ46).
T1 sequence (Q5QQ46 1-528): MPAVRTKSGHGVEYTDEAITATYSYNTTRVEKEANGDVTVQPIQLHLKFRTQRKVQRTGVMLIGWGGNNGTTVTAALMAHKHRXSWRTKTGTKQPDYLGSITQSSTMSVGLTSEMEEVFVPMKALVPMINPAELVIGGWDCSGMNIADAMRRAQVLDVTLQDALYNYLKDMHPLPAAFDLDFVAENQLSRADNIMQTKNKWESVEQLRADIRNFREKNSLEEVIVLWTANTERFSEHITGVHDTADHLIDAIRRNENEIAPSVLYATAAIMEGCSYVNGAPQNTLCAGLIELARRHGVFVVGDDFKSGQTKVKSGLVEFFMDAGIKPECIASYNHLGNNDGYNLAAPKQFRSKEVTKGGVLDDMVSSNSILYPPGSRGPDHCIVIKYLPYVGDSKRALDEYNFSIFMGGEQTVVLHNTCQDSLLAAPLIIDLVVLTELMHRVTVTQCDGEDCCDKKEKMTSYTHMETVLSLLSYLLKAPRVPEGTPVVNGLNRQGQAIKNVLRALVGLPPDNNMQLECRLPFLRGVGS
Kind of assay: biochemical. It counts as binding. The note with it: for ΔTm at 1000 µM: read-out: Tb Ino1 Tm Shift [˚C].

Assay [2] relates to HeLa cells. Put plainly: cells. The note with it: for viability at 500 µM: Homo sapiens, HeLa, 65 h, read-out: HeLa Cells Alamar Blue; for HeLa Cells Alamar Blue: Supplementary Table 1, compound 0.5 mM, percentage of controls, mean ± SD (n=3) or SE (n=2). In a few lines:
(§1)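 Viability by Alamar Blue (5 h) after ~65 h drug treatment; seeding density 2 × 10^4 cells/well in DMEM supplemented with 10% FCS and 2 mM L-Glutamine.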
(Alamar Blue is a resazurin reagent that responds to reducing activity.)

Assay [3] deals with A549 cells. Put plainly: Cytotoxicity against A549 cells, Alamar Blue. The format is cell-based. The following applies: Supplementary Table 1, compound 0.5 mM, percentage of controls (n=1); for viability at 500 µM: Homo sapiens, A549, 65 h. In a few lines:
as §1

[4] abbreviates: Supplementary Table 1, compound 1mM, mean ± SD from Boltzman curve fitting.

Like-named read-outs stand apart in the source and are kept apart here.

Regarding `O=C(O)c1ccc(-c2ccsc2)cc1` [compound 648, 4‐(3‐thienyl)benzoic acid], in assay [1], the ΔTm at 1000 µM came to 0.25 ± 0.08 °C. Besides, the figures for the viability at 500 µM in assay [2] and in assay [3] were 105 ± 8.2% and 149%, respectively.
`Cc1cc(C(=O)O)c2cc(F)ccc2n1` [compound 660, 6‐fluoro‐2‐methyl‐4‐quinolinecarboxylic acid]: the “Tb Ino1 Tm Shift [˚C]” value in assay [1] (setting [4]) was 0.5 ± 0.06 °C. The “HeLa Cells Alamar Blue” value in assay [2] was 103 ± 3.9 percentage of controls. For the same compound, the “A549 Cells Alamar Blue” value in assay [3] is on record as 146.9 percentage of controls.
`O=C(O)c1ccc(-c2ccccn2)s1` [compound 661, 5‐(2‐pyridyl)thiophene‐2‐carboxylic acid]: in assay [1], the ΔTm at 1000 µM turned out to be 0.91 ± 0.07 °C. The viability at 500 µM was 95.3 ± 3.5% in assay [2] and 94.1% in assay [3].
The matching figures for `O=C(O)c1ccc(-c2nccs2)cc1` [compound 662, 4‐(1,3‐thiazol‐2‐yl)benzoic acid]: 0.36 ± 0.06 °C, 102 ± 7.2% and 100%.
On the same counts, the results for `O=C(O)c1cccc(N2CCCCC2)c1` [compound 663, 3‐piperidinobenzoic acid] are 1.23 ± 0.07 °C, 97.9 ± 1.5% and 104%.
With `Cc1nc(-c2ccccc2)c(CO)s1` [compound 666, (2‐methyl‐4‐phenyl‐1,3‐thiazol‐5‐yl)methanol], in assay [1] (setting [4]), the “Tb Ino1 Tm Shift [˚C]” value is 0.08 ± 0.05 °C. Also, the “HeLa Cells Alamar Blue” value in assay [2] is 95.3 ± 5 percentage of controls. Further, the “A549 Cells Alamar Blue” value in assay [3] is on record as 113.4 percentage of controls.
`Cc1nc(-c2ccc(CO)cc2)cs1` [compound 667, [4‐(2‐methyl‐1,3‐thiazol‐4‐yl)phenyl]methanol]: the “Tb Ino1 Tm Shift [˚C]” value in assay [1] (setting [4]) is 0.4 ± 0.07 °C. For the same compound, the “HeLa Cells Alamar Blue” value in assay [2] was 76.7 ± 4.3 percentage of controls. The “A549 Cells Alamar Blue” value in assay [3] is recorded as 103.8 percentage of controls.
As for `N#Cc1ccnc(N2CCSCC2)c1` [compound 668, 2‐thiomorpholinoisonicotinonitrile], the ΔTm at 1000 µM in assay [1] was 1.06 ± 0.07 °C. The figures for the viability at 500 µM in assay [2] and in assay [3] were 80.3 ± 19.6% and 98.5%, respectively.
As for `CN1CCN(Cc2ccccc2N)CC1` [compound 670, 2‐[(4‐methylpiperazin‐1‐yl)methyl]aniline], in assay [1] (setting [4]), the ΔTm at 1000 µM stood at 0.05 ± 0.07 °C. Further, the viability at 500 µM was 94.6 ± 8.5% in assay [2] and 121% in assay [3].
For the compound “(Piperidino‐3‐pyridinyl)methanol [compound 569]”, the “Tb Ino1 Tm Shift [˚C]” value in assay [1] (setting [4]) was found to be 0.35 ± 0.07 °C. Besides, in assay [2], the “HeLa Cells Alamar Blue” value is listed as 89.2 ± 4.8 percentage of controls. Also, the “A549 Cells Alamar Blue” value in assay [3] is on record as 106.4 percentage of controls.
